Measurements from publication PMC8515607 (ACS Omega, 2021).
Read-outs that look alike come from different tables or passages of the source.

Legend:
[1] = tested on: A549; assay: cells; assay type: cell-based, human; conditions: for A549 SI: selectivity index = IC50 BALB/3T3 / IC50 A549
Excerpt: (§1) The A549 and MCF7 cell lines were purchased from the European Collection of Authenticated Cell Cultures (ECACC, Salisbury, U.K., 86012804 and 86012803). The LoVo cell line was purchased from the American Type Culture Collection (CCL-229, ATCC, Manassas, VA), and LoVo/DX by courtesy of Prof. E. Borowski (Technical University of Gdańsk, Gdańsk, Poland). The BALB/3T3 cell line was purchased from the American Type Culture Collection (CCL-163, ATCC, Manassas, VA). All of the cell lines are maintained in the Institute of Immunology and Experimental Therapy (IIET), Wroclaw, Poland.
(§2) A549 cells were cultured in a mixture of OptiMEM and Roswell Park Memorial Institute (RPMI) 1640 (1:1) medium (IIET, Wroclaw, Poland), supplemented with 10% fetal bovine serum HyClone (GE Healthcare) and 2 mM L-glutamine (Sigma-Aldrich, Germany). MCF7 cells were cultured in a mixture of Eagle’s medium (IIET, Wroclaw, Poland), supplemented with 10% fetal bovine serum, 2 mM L-glutamine, and insulin (Sigma-Aldrich, Germany). LoVo and LoVo/DX cells were cultured in F12K medium (Corning), supplemented with 10% fetal bovine serum HyClone (GE Healthcare) and 0.1 μg/mL doxorubicin (Accord) for LoVo/DX. BALB/3T3 fibroblasts were cultured in Dulbecco’s medium (Gibco), supplemented with 10% fetal bovine serum (GE Healthcare) and 2 mM L-glutamine (Sigma-Aldrich, Germany). All culture media contained antibiotics: 100 U/mL penicillin (Polfa-Tarchomin, Poland) and 0.1 mg/mL streptomycin (Sigma-Aldrich, Germany). All cell lines were cultured during entire experiment in humid atmosphere at 37 °C and 5% CO2.
(§3) All cell lines were exposed to each tested agent at different concentrations in the range 100–0.00001 μg/mL for 72 h. The cells were also exposed to the reference drug cisplatin (Teva Pharmaceuticals, Poland) and doxorubicin (Accord Healthcare Limited, U.K.). Additionally, all cell lines were exposed to dimethyl sulfoxide (DMSO) (solvent used for tested compounds) (POCh, Poland) at concentrations corresponding to those present in tested agents dilutions. After 72 h, sulforhodamine B (SRB) assay was performed.[57]
(§4) After 72 h of incubation with the tested compounds, the cells were fixed in situ by gently adding cold 50% trichloroacetic acid (TCA) (POCh, Poland) and were incubated at room temperature for 1 h. Then, the wells were washed four times with water and air-dried. Next, 0.1% solution of sulforhodamine B (Sigma-Aldrich, Germany) in 1% acetic acid (POCh, Poland) was added to each well and the plates were incubated at room temperature for 0.5 h. After incubation time, unbound dye was removed by washing plates four times with 1% acetic acid, whereas stain bound to cells was solubilized with 10 mM Tris base (Sigma-Aldrich, Germany). Absorbance of each solution was read at Synergy H4 Hybrid Multi-Mode Microplate Reader (BioTek Instruments) at the 540 nm wavelength.
(§5) IC50 values were calculated in Excel sheet using formulas adapted by Mateusz Psurski fromCheburator 0.4, Dmitry Nevozhay software (version 1.2.0 software by Dmitry Nevozhay, 2004–2014, http://www.cheburator.nevozhay.com, freely available) for each experiment.[58] Compounds at each concentration were tested in triplicate in a single experiment, and each experiment was repeated at least three times independently.

[2] = tested on: LoVo/DX; assay: cells; assay type: cell-based, human; conditions: for LoVo/DX RI: resistance index = IC50 LoVo/DX / IC50 LoVo; for LoVo/DX SI: selectivity index = IC50 BALB/3T3 / IC50 LoVo/DX
Excerpt: as §1, §2, §3, §4, §5

[3] = tested on: MCF-7; assay: cells; assay type: cell-based, human; conditions: for IC50: Homo sapiens, MCF7, 72 h, read-out: MCF-7 IC50 (nM); for MCF-7 SI: selectivity index = IC50 BALB/3T3 / IC50 MCF-7
Excerpt: as §1, §2, §3, §4, §5

[4] = tested on: LoVo; assay: cells; assay type: cell-based, human; conditions: for IC50: Homo sapiens, LoVo, 72 h, read-out: LoVo IC50 (nM); for LoVo SI: selectivity index = IC50 BALB/3T3 / IC50 LoVo
Excerpt: as §1, §2, §3, §4, §5

[5] = tested on: A549, MCF-7, and LoVo cells; assay: Antiproliferative activity, values quoted jointly for three tumor lines; assay type: cell-based, human; conditions: summary of Table 1; for IC50: Homo sapiens, read-out: IC50 against A549, MCF-7, and LoVo cells (span over the three lines)
Excerpt: as §1, §2, §3, §4, §5

[6] = tested on: BALB/3T3; assay: In vitro antiproliferative activity, SRB assay, normal fibroblasts BALB/3T3; assay type: cell-based; conditions: Mus musculus, BALB/3T3, normal murine embryonic fibroblasts, 72 h, mean ± SD
Excerpt: as §1, §2, §3, §4, §5

[7] = tested on: MCF-7; set-up: method as in PMID 32295119; conditions: amide directly on C7; cited from earlier work
[8] = tested on: A549; set-up: method as in PMID 32295119; conditions: amide directly on C7; cited from earlier work
[9] = tested on: A549 and MCF7 cells; set-up: method as in PMID 32295119; conditions: read-out: IC50 A549 and MCF7 of 7-amide (span); amide directly on C7; cited from earlier work
[10] = tested on: LoVo; set-up: method as in PMID 32295119; conditions: cited from earlier work
[11] = tested on: all cells used, both cancerous and normal; assay: Antiproliferative activity, values quoted jointly for all cell lines tested; assay type: cell-based
Excerpt: as §1, with “Poland. […]” for “Poland.”
After 72 h of incubation with the tested compounds, the cells were fixed in situ by gently adding cold 50% trichloroacetic acid (TCA) (POCh, Poland) and were incubated at room temperature for 1 h. […] Absorbance of each solution was read at Synergy H4 Hybrid Multi-Mode Microplate Reader (BioTek Instruments) at the 540 nm wavelength.
IC50 values were calculated in Excel sheet using formulas adapted by Mateusz Psurski fromCheburator 0.4, Dmitry Nevozhay software (version 1.2.0 software by Dmitry Nevozhay, 2004–2014, http://www.cheburator.nevozhay.com, freely available) for each experiment.[58] […]

[12] = tested on: human colon adenocarcinoma cell lines; conditions: cited from earlier work
[13] = Homo sapiens, A549, 72 h, read-out: A549 IC50 (nM), 72 h exposure, SRB, mean ± SD
[14] = Homo sapiens, LoVo/DX, 72 h, read-out: LoVo/DX IC50 (nM), 72 h exposure, SRB, mean ± SD
[15] = read-out: LoVo/DX IC50, 72 h exposure, SRB, mean ± SD

Row | Structure (SMILES) | IC50 [1, 13] [nM] | A549 SI [1] | IC50 [2, 14] [nM] | LoVo/DX RI [2] | LoVo/DX SI [2] | IC50 [3] [nM] | MCF-7 SI [3] | IC50 [4] [nM] | LoVo SI [4] | IC50 [6] [nM] | IC50 [5] [nM] | also measured
1 | CNc1ccc2c(cc1=O)[C@@H](n1cc(CNC(=O)Oc3ccccc3)nn1)CCc1cc(OC)c(OC)c(OC)c1-2 [Compound 43] | 4.1 ± 0.6 | 2.7 | 920 ± 150 | 200 | <0.1 | 2.8 ± 1.2 | 3.9 | 4.7 ± 1.1 | 2.3 | 11 ± 0.4 |  | SI for A549, MCF-7, and LoVo cells (span) [5]: 2.1–3.9
2 | CNc1ccc2c(cc1=O)[C@@H](n1cc(CNC(=O)OCC(C)C)nn1)CCc1cc(OC)c(OC)c(OC)c1-2 [Compound 40] | 1.2 to 1.9 | 3.3 | 310 ± 61 | 180 | <0.1 | 1.2 ± 0.3 | 3.3 | 1.7 ± 0.2 | 2.3 | 3.9 ± 0.2 | 1.2 to 1.7 | IC50 ([1]; read-out: A549 IC50, 72 h exposure, SRB, mean ± SD): 1.2 ± 0.1 nM; SI for A549, MCF-7, and LoVo cells (span) [5]: 2.1–3.9
3 | CNc1ccc2c(cc1=O)[C@@H](n1cc(C(=O)OCc3ccc(F)cc3)nn1)CCc1cc(OC)c(OC)c(OC)c1-2 [Compound 21] | 21 ± 7.7 | 1.2 | 530 ± 110 | 25 | 0.1 | 21 ± 8 | 1.2 | 21 ± 6.4 | 1.2 | 25 ± 5.6 | 10 to 25 | 
4 | CNc1ccc2c(cc1=O)[C@@H](n1cc(CNC(=O)c3ccccc3Cl)nn1)CCc1cc(OC)c(OC)c(OC)c1-2 [Compound 35] | 5.7 ± 2 | 2.1 | ≤ 1000 | 160 | <0.1 | 3.8 ± 0.4 | 3.2 | 6.3 ± 3.1 | 1.9 | 12 ± 2.9 | 2.7 to 6.3 | IC50 [2, 15]: 1000 ± 97 nM
5 | CCCCCCCCCCCCCCCC(=O)N[C@H]1CCc2cc(OC)c(OC)c(OC)c2-c2ccc(NC)c(=O)cc21 [7-palmitamide] |  |  |  |  |  |  |  |  |  |  |  | SI MCF7 of 7-amide [7]: 1.2; SI A549 of 7-amide [8]: 0.9; IC50 [9]: 460 to 620 nM; SI LoVo of 7-amide ([10]; amide directly on C7): 8.8; IC50 ([10]; read-out: IC50 LoVo of 7-amide, amide directly on C7 of 10-N-methylaminocolchicine): 62 nM
6 | CNc1ccc2c(cc1=O)[C@@H](n1cc(C(=O)OC)nn1)CCc1cc(OC)c(OC)c(OC)c1-2 [Compound 18] | 13 ± 2.3 | 1.5 | 280 ± 77 | 23 | 0.1 | 12 ± 2.7 | 1.7 | 12 ± 4.3 | 1.7 | 20 ± 13 | 10 to 25 | 
7 | C=CCOC(=O)NCc1cn([C@H]2CCc3cc(OC)c(OC)c(OC)c3-c3ccc(NC)c(=O)cc32)nn1 [Compound 39] | 3.3 ± 0.5 | 2.8 | 440 ± 64 | 100 | <0.1 | 2.6 ± 0.5 | 3.5 | 4.3 ± 0.6 | 2.1 | 9.1 ± 2.6 |  | SI for A549, MCF-7, and LoVo cells (span) [5]: 2.1–3.9
8 | CNc1ccc2c(cc1=O)[C@@H](N=[N+]=[N-])CCc1cc(OC)c(OC)c(OC)c1-2 [Compound 4, 7-azido-10-N-methylaminocolchicine] | 1.4 ± 0.5 | 1.5 | 1.7 ± 0.6 | 1.5 | 1.2 | 1.5 ± 0.3 | 1.4 | 1.1 ± 0.5 | 1.9 | 2.1 ± 1.2 |  | SI (selectivity coefficients, all cancer lines) [11]: < 2; IC50 ([11]; cancerous and normal lines, read-out: IC50 against all cells used (span)): 1.1 to 2.1 nM
9 | CNc1ccc2c(cc1=O)[C@@H](n1cc(CNC(=O)C(Cl)Cl)nn1)CCc1cc(OC)c(OC)c(OC)c1-2 [Compound 31] | 3.3 ± 1.1 | 3.0 | ≤ 1000 | 270 | <0.1 | 3 ± 1.5 | 3.3 | 3.1 ± 1.1 | 3.2 | 9.9 ± 3 | 2.7 to 6.3 | IC50 [2, 15]: 830 ± 220 nM
10 | CNc1ccc2c(cc1=O)[C@@H](n1ccnn1)CCc1cc(OC)c(OC)c(OC)c1-2 [Compound 5] | 6.1 ± 1.1 | 1.8 | 55 ± 20 | 9.8 | 0.2 | 5.6 ± 1 | 2.0 | 5.6 ± 0.6 | 2.0 | 11 ± 2.2 | 3.1 to 6.4 | 
11 | CNc1ccc2c(cc1=O)[C@@H](n1cc(CN)nn1)CCc1cc(OC)c(OC)c(OC)c1-2 [Compound 8] | 70 ± 23 | 5.7 | 12000 ± 2400 | 86 | <0.1 | 34 ± 16 | 11.8 | 140 ± 56 | 2.9 | 400 ± 37 | 30 to 140 | 
12 | CNc1ccc2c(cc1=O)[C@@H](n1cc(CNC(=O)CCCCCl)nn1)CCc1cc(OC)c(OC)c(OC)c1-2 [Compound 32] | 4.4 ± 1.3 | 5.0 | 2800 ± 200 | 560 | <0.1 | 2.7 ± 1.1 | 8.1 | 5 ± 0.4 | 4.4 | 22 ± 5.6 | 2.7 to 6.3 | 
13 | CNc1ccc2c(cc1=O)C(NCc1ccccc1Cl)CCc1cc(OC)c(OC)c(OC)c1-2 (stereo not drawn) [7-N-(2-chlorobenzyl)-10-methylaminocolchcine] |  |  |  |  |  |  |  |  |  |  |  | calculated selectivity coefficients [12]: around 90
